pIC50: −log10 of the molar value.

Usually pIC50 stands for the negative decadic logarithm of the IC50, by convention in mol/L. Read a high pIC50 as a low IC50. Usually IC50 stands for the concentration at which inhibition is half-maximal. A higher IC50 goes with a need for much substance.

A short description of this assay: Inhibition of human TREX1 exonuclease activity using labeled DNA oligonucleotide as substrate incubated for 30 mins and measured after 45 mins by fluorescence assay.
As to `N[C@@H]1C[C@H]2C(=O)N([C@H](CCNS(=O)(=O)C3CC3)C(=O)NCc3ccc(Cl)c(Cl)c3)CCC(CCc3ccccc3)N2C1` (stereo not given in full), the negative logarithm of the IC50 (pIC50) was > 6.00.

Take `CCOC(=O)CC[C@H](C(=O)N1CCCC[C@H]1c1ccc(Cl)c(Cl)c1)N1CCC(CCc2ccccc2)N2C[C@H](N)C[C@H]2C1=O` (stereo not given in full): the pIC50 is > 6.00.

On to `N#CC[C@H](C(=O)NCc1ccc(Cl)cn1)N1CCC(CCc2ccccc2)N2C[C@H](N)C[C@H]2C1=O` (stereo not given in full), for which the negative-log IC50 (pIC50) is > 6.00. In the case of `NC(=O)CC[C@H](C(=O)N1Cc2cc(Cl)c(Cl)cc2C1)N1CCC(CCc2ccccc2)N2C[C@H](N)C[C@H]2C1=O` (stereo not given in full), the IC50 entry was “in the range around 10 µM”.

With `NC(=O)C[C@H](C(=O)NCc1ccc(Cl)c(Cl)n1)N1CCC(CCc2ccccc2)N2C[C@H](N)C[C@H]2C1=O` (stereo not given in full), the pIC50 is > 6.00.

As to `N[C@@H]1C[C@H]2C(=O)N([C@H](CCC(=O)O)C(=O)NCc3ccc(Cl)c(Cl)c3)CCC(COc3ccc(F)cc3)N2C1` (stereo not given in full), the pIC50 was > 6.00.

For `N#CCC[C@H](C(=O)NCc1ccc(Cl)c(Cl)c1)N1CCC(COc2cccc(F)c2)N2C[C@H](N)C[C@H]2C1=O` (stereo not given in full), the negative logarithm of the IC50 (pIC50) is > 6.00.

For `CN(Cc1ccc(Cl)c(Cl)c1)C(=O)[C@@H](CC#N)N1CCC(CCc2ccccc2)N2C[C@H](N)C[C@H]2C1=O` (stereo not given in full), the pIC50 is > 6.00. Still for that read-out and setting: the result for `N[C@@H]1C[C@H]2C(=O)N([C@H](CCC(=O)O)C(=O)NCc3ccc(Cl)c(Cl)c3)CCC(COc3cccc(Cl)c3)N2C1` (stereo not given in full) reads > 6.00. The same measure, in the same setting: the result for `N#CC[C@H](C(=O)NCc1ccc(Cl)c(Cl)c1)N1CCC(CCc2ccccc2)N2C[C@H](N)C[C@H]2C1=O` (stereo not given in full) reads > 6.00; that for `CCOC(=O)CC[C@H](C(=O)NCc1ccc(Cl)c(Cl)c1)N1CCC(CCc2ccccc2)N2C[C@H](N)C[C@H]2C1=O` (stereo not given in full), > 6.00. On to `COc1cc(Cl)c(Cl)cc1CNC(=O)[C@@H](CCC(=O)O)N1CCC(CCc2ccccc2)N2C[C@H](N)C[C@H]2C1=O` (stereo not given in full), for which the pIC50 is > 6.00. `N[C@@H]1C[C@H]2C(=O)N([C@H](CCC(=O)O)C(=O)NCc3ccc(Cl)c(Cl)c3)CCC(COc3cccc(F)c3)N2C1` (stereo not given in full): the pIC50 was > 6.00. With `CCOC(=O)CC[C@H](C(=O)N1CCC[C@H]1c1ccc(Cl)c(Cl)c1)N1CCC(CCc2ccccc2)N2C[C@H](N)C[C@H]2C1=O` (mixture of isomers), the pIC50 is > 6.00. Still for that read-out and setting: in the case of `CCOc1c(CNC(=O)[C@@H](CCC(=O)O)N2CCC(CCc3ccccc3)N3C[C@H](N)C[C@H]3C2=O)ccc(Cl)c1Cl` (stereo not given in full) it was > 6.00; in that of `CCOC(=O)CC[C@H](C(=O)NCc1ccc(Cl)c(Cl)n1)N1CCC(CCc2ccccc2)N2C[C@H](N)C[C@H]2C1=O` (stereo not given in full), > 6.00; in that of `CCOC(=O)CC[C@H](C(=O)NCc1ccc(Cl)c(Cl)c1OC)N1CCC(CCc2ccccc2)N2C[C@H](N)C[C@H]2C1=O` (stereo not given in full), > 6.00. For the compound `N[C@@H]1C[C@H]2C(=O)N([C@H]3CCCN(S(=O)(=O)c4ccc(Cl)c(Cl)c4)C3)CCC(CCc3ccccc3)N2C1` (stereo not given in full), the IC50 entry is “in the range around 1 µM”. On to `N[C@@H]1C[C@H]2C(=O)N([C@@H]3CCCN(C(=O)c4ccc(Cl)c(Cl)c4)C3)CCC(CCc3ccccc3)N2C1` (stereo not given in full), for which the IC50 result is “in the range around 10 µM”. Take `Cc1ccc(OCC2CCN([C@H](CCC(=O)O)C(=O)NCc3ccc(Cl)c(Cl)c3)C(=O)[C@@H]3C[C@@H](N)CN23)cc1` (stereo not given in full): the IC50 entry is “in the range around 1 µM”. With `N[C@@H]1C[C@H]2C(=O)N([C@H](CCC(=O)O)C(=O)NCc3ccc(Cl)c(Cl)c3)CCC(CCOc3ccccc3)N2C1` (stereo not given in full), the IC50 entry is “in the range around 1 µM”. Take `CONC(=O)CC[C@H](C(=O)NCc1ccc(Cl)c(Cl)c1)N1CCC(CCc2ccccc2)N2C[C@H](N)C[C@H]2C1=O` (stereo not given in full): the pIC50 is > 6.00. `COc1c(CNC(=O)[C@@H](CCC(=O)O)N2CCC(CCc3ccccc3)N3C[C@H](N)C[C@H]3C2=O)ccc(Cl)c1Cl` (stereo not given in full): the negative logarithm of the IC50 (pIC50) is > 6.00. With `CCN(CC)C(=O)COC(=O)CC[C@H](C(=O)NCc1ccc(Cl)c(Cl)c1)N1CCC(CCc2ccccc2)N2C[C@H](N)C[C@H]2C1=O` (stereo not given in full), the pIC50 was > 6.00. Take `N[C@@H]1C[C@H]2C(=O)N([C@H](CCC(=O)O)C(=O)NCc3ccc(Cl)c(Cl)n3)CCC(CCc3ccccc3)N2C1` (stereo not given in full): the pIC50 is > 6.00. Turning to `N[C@@H]1C[C@H]2C(=O)N(c3cccn(Cc4ccc(Cl)c(Cl)c4)c3=O)CCC(CCc3ccccc3)N2C1` (stereo not given in full), the pIC50 is > 6.00. As to `Cc1ccc(CNC(=O)[C@@H](CC(C)C)N2CCC(CCc3ccccc3)N3C[C@H](N)C[C@H]3C2=O)cc1Cl` (stereo not given in full), the pIC50 is > 6.00.

With `CCOC(=O)CC[C@H](C(=O)NCc1cc(Cl)c(Cl)cc1F)N1CCC(CCc2ccccc2)N2C[C@H](N)C[C@H]2C1=O` (stereo not given in full), the pIC50 was > 6.00. As to `N[C@@H]1C[C@H]2C(=O)N([C@H](CCC(=O)O)C(=O)NCc3ccc(Cl)c(C(F)(F)F)c3)CCC(CCc3ccccc3)N2C1` (stereo not given in full), the negative logarithm of the IC50 (pIC50) was > 6.00.

On to `N[C@@H]1C[C@H]2C(=O)N([C@H](CCNC(=O)C3CC3)C(=O)NCc3ccc(Cl)c(Cl)c3)CCC(CCc3ccccc3)N2C1` (stereo not given in full), for which the pIC50 was > 6.00. In the case of `COC(=O)CC[C@H](C(=O)NS(=O)(=O)c1ccc(Cl)c(Cl)c1)N1CCC(CCc2ccccc2)N2C[C@H](N)C[C@H]2C1=O` (stereo not given in full), the pIC50 was > 6.00. With `N[C@@H]1C[C@H]2C(=O)N([C@H](CCC(=O)NO)C(=O)NCc3ccc(Cl)c(Cl)c3)CCC(COc3ccc(F)cc3)N2C1` (stereo not given in full), the negative logarithm of the IC50 (pIC50) was > 6.00. Turning to `CC(C)Oc1c(CNC(=O)[C@@H](CCc2nnn[nH]2)N2CCC(CCc3ccccc3)N3C[C@H](N)C[C@H]3C2=O)ccc(Cl)c1Cl` (stereo not given in full), the pIC50 was > 6.00. Turning to `N[C@@H]1C[C@H]2C(=O)N([C@H](CCC(=O)O)C(=O)NCc3cc(Cl)c(Cl)cc3F)CCC(CCc3ccccc3)N2C1` (stereo not given in full), the pIC50 is > 6.00.

For `NC(=O)C[C@H](C(=O)NCc1ccc(Cl)c(Cl)c1)N1CCC(CCc2ccccc2)N2C[C@H](N)C[C@H]2C1=O` (stereo not given in full), the pIC50 is > 6.00.

With `N[C@@H]1C[C@H]2C(=O)N([C@H]3CCCN(C(=O)c4ccc(Cl)c(Cl)c4)C3)CCC(CCc3ccccc3)N2C1` (mixture of isomers), the IC50 entry was “in the range around 10 µM”. With `N[C@@H]1C[C@H]2C(=O)N([C@H](CCC(=O)O)C(=O)NCc3cc(Cl)c(Cl)cn3)CCC(CCc3ccccc3)N2C1` (stereo not given in full), the pIC50 was > 6.00.

As for `CCOC(=O)CC[C@H](C(=O)NCc1cc(Cl)c(Cl)cc1OC)N1CCC(CCc2ccccc2)N2C[C@H](N)C[C@H]2C1=O` (stereo not given in full), the pIC50 is > 6.00. On to `N#CC[C@H](C(=O)N1CCc2cc(Cl)c(Cl)cc2C1)N1CCC(CCc2ccccc2)N2C[C@H](N)C[C@H]2C1=O` (stereo not given in full), for which the 50% inhibitory concentration (IC50) entry is “in the range around 1 µM”. In the case of `CC(C)Oc1c(CNC(=O)[C@@H](CCC#N)N2CCC(CCc3ccccc3)N3C[C@H](N)C[C@H]3C2=O)ccc(Cl)c1Cl` (stereo not given in full), the negative logarithm of the IC50 (pIC50) was > 6.00. On to `N[C@@H]1C[C@H]2C(=O)N([C@H]3CCN(Cc4ccc(Cl)c(Cl)c4)C3=O)CCC(CCc3ccccc3)N2C1` (stereo not given in full), for which the pIC50 is > 6.00. Regarding `N[C@@H]1C[C@H]2C(=O)N([C@H](CCC(=O)O)C(=O)NCc3ccc(Cl)c(Cl)c3)CCC(COc3ccc(Cl)cc3)N2C1` (stereo not given in full), the pIC50 was > 6.00.

For `N[C@@H]1C[C@H]2C(=O)N([C@H](CCC(=O)O)C(=O)NCc3ccc(Cl)cn3)CCC(CCc3ccccc3)N2C1` (stereo not given in full), the pIC50 was > 6.00.

On to `COc1c(CNC(=O)[C@@H](CCC(N)=O)N2CCC(CCc3ccccc3)N3C[C@H](N)C[C@H]3C2=O)ccc(Cl)c1Cl` (stereo not given in full), for which the negative logarithm of the IC50 (pIC50) is > 6.00. Turning to `CC(C)C[C@H](C(=O)N[C@@H](C)c1ccccc1)N1CCC(CCc2ccccc2)N2C[C@H](N)C[C@H]2C1=O` (stereo not given in full), the IC50 entry is “in the range around 1 µM”.

As for `COc1c(CNC(=O)[C@@H](CCC#N)N2CCC(CCc3ccccc3)N3C[C@H](N)C[C@H]3C2=O)ccc(Cl)c1Cl` (stereo not given in full), the pIC50 is > 6.00. Regarding `N[C@@H]1C[C@H]2C(=O)N([C@@H]3CCCN(S(=O)(=O)c4ccccc4)C3)CCC(CCc3ccccc3)N2C1` (stereo not given in full), the IC50 result was “in the range around 10 µM”. Turning to `CC(C)C[C@H](C(=O)N(C)Cc1ccc(Cl)c(Cl)c1)N1CCC(CCc2ccccc2)N2C[C@H](N)C[C@H]2C1=O` (stereo not given in full), the pIC50 is > 6.00. On the same count and under the same terms, in the case of `N[C@@H]1C[C@H]2C(=O)N([C@@H]3CCCN(Cc4ccc(Cl)c(Cl)c4)C3=O)CCC(CCc3ccccc3)N2C1` (stereo not given in full) it was > 6.00. As to `COc1ccc(CNC(=O)[C@@H](CC(C)C)N2CCC(CCc3ccccc3)N3C[C@H](N)C[C@H]3C2=O)cc1` (stereo not given in full), the pIC50 was > 6.00. Regarding `CC(C)Oc1c(CNC(=O)[C@@H](CCC(=O)O)N2CCC(CCc3ccccc3)N3C[C@H](N)C[C@H]3C2=O)ccc(Cl)c1Cl` (stereo not given in full), the pIC50 is > 6.00. Take `CC(=O)NCC[C@H](C(=O)NCc1ccc(Cl)c(Cl)c1)N1CCC(CCc2ccccc2)N2C[C@H](N)C[C@H]2C1=O` (stereo not given in full): the pIC50 is > 6.00. For the compound `N[C@@H]1C[C@H]2C(=O)N([C@H](CCC(=O)NO)C(=O)NCc3ccc(Cl)c(Cl)c3)CCC(COc3cccc(F)c3)N2C1` (stereo not given in full), the pIC50 was > 6.00. For `CCOC(=O)N[C@@H]1C[C@H]2C(=O)N([C@H](CCC(=O)O)C(=O)NCc3ccc(Cl)c(Cl)c3)CCC(CCc3ccccc3)N2C1` (stereo not given in full), the IC50 result is “in the range around 10 µM”. Turning to `CS(=O)(=O)NCC[C@H](C(=O)NCc1ccc(Cl)c(Cl)c1)N1CCC(CCc2ccccc2)N2C[C@H](N)C[C@H]2C1=O` (stereo not given in full), the pIC50 is > 6.00. As to `N[C@@H]1C[C@H]2C(=O)N([C@@H](CCC(=O)O)C(=O)NCc3ccc(Cl)c(Cl)c3)CCC(CCc3ccccc3)N2C1` (stereo not given in full), the negative-log IC50 (pIC50) was > 6.00. For the compound `N[C@@H]1C[C@H]2C(=O)N([C@H](CCC(=O)O)C(=O)NCc3ccc(Cl)c(Cl)c3)CCC(COc3ccccc3F)N2C1` (stereo not given in full), the pIC50 was > 6.00. Regarding `N[C@@H]1C[C@H]2C(=O)N([C@H](CS(=O)(=O)c3ccccc3O)C(=O)NCc3ccc(Cl)c(Cl)c3)CCC(CCc3ccccc3)N2C1` (stereo not given in full), the pIC50 is > 6.00. For `CCOC(=O)CC[C@H](C(=O)NCc1ccc(Cl)c(Cl)c1F)N1CCC(CCc2ccccc2)N2C[C@H](N)C[C@H]2C1=O` (stereo not given in full), the pIC50 is > 6.00. Consider `COC(=O)CC[C@H](C(=O)NCc1ccc(Cl)cn1)N1CCC(CCc2ccccc2)N2C[C@H](N)C[C@H]2C1=O` (stereo not given in full), for which the pIC50 is > 6.00.
